29 molecules from patent US8796296B2, “Aminopyrimidine derivatives as LRRK2 modulators” (Genentech, Inc., priority 2011, dated 2014) can be followed below.

Molecules are shown by their SMILES.

For the assay, the target named is LRRK2 (Homo sapiens (Human), UniProt Q5S007, G2019S). Put plainly: In Vitro LRRK2 LabChip Assay (LRRK2 Ki). The assay is classed as biochemical. As for the experimental part: In Vitro LRRK2 LabChip Assay
Chain of LRRK2 (Q5S007 whole entry G2019S): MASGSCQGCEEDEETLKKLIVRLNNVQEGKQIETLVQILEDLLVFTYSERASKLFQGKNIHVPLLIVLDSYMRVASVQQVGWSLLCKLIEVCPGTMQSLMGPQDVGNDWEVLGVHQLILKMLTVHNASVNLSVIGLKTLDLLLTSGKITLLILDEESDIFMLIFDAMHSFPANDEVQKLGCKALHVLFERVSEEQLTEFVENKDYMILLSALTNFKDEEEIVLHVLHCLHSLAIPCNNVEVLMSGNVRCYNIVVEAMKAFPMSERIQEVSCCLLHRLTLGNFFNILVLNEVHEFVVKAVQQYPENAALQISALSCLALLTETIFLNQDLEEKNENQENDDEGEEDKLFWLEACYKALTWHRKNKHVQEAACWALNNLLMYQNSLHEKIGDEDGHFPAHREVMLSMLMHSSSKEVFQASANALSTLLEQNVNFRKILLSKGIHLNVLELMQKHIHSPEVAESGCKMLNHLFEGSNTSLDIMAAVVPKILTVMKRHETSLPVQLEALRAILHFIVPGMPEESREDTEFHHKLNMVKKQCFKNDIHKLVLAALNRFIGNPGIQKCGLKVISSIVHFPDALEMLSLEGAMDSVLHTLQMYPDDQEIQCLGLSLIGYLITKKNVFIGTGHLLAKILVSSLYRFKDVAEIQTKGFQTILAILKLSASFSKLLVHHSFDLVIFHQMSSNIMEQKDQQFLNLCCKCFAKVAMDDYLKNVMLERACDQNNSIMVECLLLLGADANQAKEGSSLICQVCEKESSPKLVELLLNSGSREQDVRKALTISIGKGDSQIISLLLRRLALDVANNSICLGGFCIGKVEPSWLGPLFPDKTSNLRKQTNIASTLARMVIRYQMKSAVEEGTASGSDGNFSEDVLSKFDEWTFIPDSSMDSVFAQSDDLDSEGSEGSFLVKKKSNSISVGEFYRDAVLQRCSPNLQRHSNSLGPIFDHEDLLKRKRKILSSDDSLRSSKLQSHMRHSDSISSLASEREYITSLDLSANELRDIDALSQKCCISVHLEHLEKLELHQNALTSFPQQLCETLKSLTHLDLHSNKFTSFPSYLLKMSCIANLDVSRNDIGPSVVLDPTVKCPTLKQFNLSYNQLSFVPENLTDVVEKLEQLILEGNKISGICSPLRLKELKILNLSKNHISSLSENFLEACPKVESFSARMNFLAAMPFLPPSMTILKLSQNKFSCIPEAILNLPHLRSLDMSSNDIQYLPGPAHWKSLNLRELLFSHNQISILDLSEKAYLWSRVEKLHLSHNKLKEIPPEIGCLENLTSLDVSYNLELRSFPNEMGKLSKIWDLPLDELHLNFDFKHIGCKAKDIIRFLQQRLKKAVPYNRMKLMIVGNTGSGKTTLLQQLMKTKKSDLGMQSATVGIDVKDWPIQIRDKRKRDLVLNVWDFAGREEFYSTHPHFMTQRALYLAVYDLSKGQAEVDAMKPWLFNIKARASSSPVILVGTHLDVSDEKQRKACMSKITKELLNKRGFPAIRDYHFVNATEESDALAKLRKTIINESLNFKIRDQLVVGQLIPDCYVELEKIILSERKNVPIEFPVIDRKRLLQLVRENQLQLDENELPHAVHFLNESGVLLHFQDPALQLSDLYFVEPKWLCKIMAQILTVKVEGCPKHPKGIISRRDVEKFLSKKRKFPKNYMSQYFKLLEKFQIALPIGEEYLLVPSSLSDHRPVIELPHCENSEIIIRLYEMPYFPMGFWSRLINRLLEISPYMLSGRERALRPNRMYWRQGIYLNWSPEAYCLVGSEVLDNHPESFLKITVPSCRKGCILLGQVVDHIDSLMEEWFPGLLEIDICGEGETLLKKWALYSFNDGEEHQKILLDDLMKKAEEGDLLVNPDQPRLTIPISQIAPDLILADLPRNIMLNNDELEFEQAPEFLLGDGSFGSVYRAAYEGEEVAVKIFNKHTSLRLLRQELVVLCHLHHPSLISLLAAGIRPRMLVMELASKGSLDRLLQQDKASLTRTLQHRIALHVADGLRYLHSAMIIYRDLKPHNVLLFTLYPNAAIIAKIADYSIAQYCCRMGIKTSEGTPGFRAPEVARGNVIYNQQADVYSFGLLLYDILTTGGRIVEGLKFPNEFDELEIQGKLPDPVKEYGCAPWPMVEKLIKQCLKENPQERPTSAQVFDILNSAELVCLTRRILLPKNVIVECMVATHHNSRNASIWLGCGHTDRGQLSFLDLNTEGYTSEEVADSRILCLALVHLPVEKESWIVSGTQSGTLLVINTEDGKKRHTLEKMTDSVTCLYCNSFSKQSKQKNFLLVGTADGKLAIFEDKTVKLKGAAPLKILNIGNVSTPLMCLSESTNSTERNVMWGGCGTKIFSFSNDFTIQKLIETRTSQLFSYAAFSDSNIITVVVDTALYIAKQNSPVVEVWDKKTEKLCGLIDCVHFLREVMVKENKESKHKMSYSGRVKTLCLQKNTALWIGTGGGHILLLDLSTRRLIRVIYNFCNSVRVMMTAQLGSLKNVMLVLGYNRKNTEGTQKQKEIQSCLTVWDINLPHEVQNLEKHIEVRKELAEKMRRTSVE
This assay was used to determine a compound's potency in inhibiting activity of LRRK2 by determining, Kiapp, IC50, or percent inhibition values. In a polypropylene plate, LRRK2, fluorescently-labeled peptide substrate, ATP and test compound were incubated together. Using a LabChip 3000 (Caliper Life Sciences), after the reaction the substrate was separated by capillary electrophoresis into two populations: phosphorylated and unphosphorylated. The relative amounts of each were quantitated by fluorescence intensity. LRRK2 Ki was determined according to the equation: Y=V0*(1−((x+Ki*(1+S/Km)+Et)/(2*Et)−(((x+Ki*(1+S/Km)+Et)^2−(4*Et*x))^0.5)/(2*Et))). Ki values in Table 4 and elsewhere herein are shown in μM.
Assay conditions and materials used were as follows:
LRRK2 Wild type in 5 mM MgCl2: 15 nM (Invitrogen lot #500607F)
Kinase reaction time: 2 hours
Wild type in 5 mM MgCl2: 80 μM
Kinase: LRRK2 G2019S (Invitrogen cat #PV4882). • LRRK2 Wild type (Invitrogen cat #PV4874).
Substrate: 5FAM-GAGRLGRDKYKTLRQIRQ-CONH2
Complete Reaction Buffer: H2O/25 mM Tris, pH 8.0/5 mM MgCl2/2 mM DTT/0.01% Triton X-100.
For serial dilutions, 34.6 μl DMSO was added to columns 3-24. For the assay controls, 37.5 μl DMSO was added to columns 1 and 2 of rows A and P. a,d and 50 μl 25 μM G-028831 (Staurosporine) was added to columns 1 and 2, row B. For the samples: to start at 100 μM, 37.5 μl DMSO was to columns 1 and 2, then 12.5 μl 10 mM compound; to start at 10 μM, 78 μl DMSO was added to columns 1 & 2, then 2 μl 10 mM compound; and to start at 1 μM, 25 μM compound (2 μl 10 mM cmpd+798 μl DMSO) was added to empty columns 1 and 2. A Precision instrument was used to perform 1:3.16 serial dilutions (“PLK_BM_serial_halflog”).
ATP was diluted to 282.1 μM in Complete Kinase Buffer (final concentration was 130 μM).
In Complete Reaction Buffer, substrate was diluted to 4 μM. Equal volumes of Complete Reaction Buffer and 4 μM substrate were combined to obtain the blank. Equal volumes of Complete Reaction Buffer and 4 μM substrate were combined and to the combined solution was added 2× final LRRK2 concentration.
To a 50 μl polypropylene plate, 5 μl/well buffer/substrate was added by hand to Blank wells. A Biomek FX was used to start the kinase reaction (“PLK SAR 23 ATP”). The following were added to the appropriate wells:
The plate was incubated for 2 hours in the dark. Biomek FX was used to stop the kinase reaction (“PLK Stop”), and 10 μl/well Stop solution was added to the Assay Plate.
Results were read on the LabChip 3000.
The LabChip 3000 was run using the job “LRRK2 IC50” with the following job settings: […]
The Ki is the equilibrium dissociation constant of an inhibitor or competing ligand from its target. For the molecule `CNc1nc(Nc2cc3c(cc2Cl)C(=O)N(C)CCO3)ncc1C(F)(F)F` [Compound 1, 7-chloro-4-methyl-8-(4-(methylamino)-5-(trifluoromethyl)pyrimidin-2-ylamino)-3,4-dihydrobenzo[f][1,4]oxazepin-5(2H)-one], affinity was put at a Ki of 3 nM.

Molecule `CNc1nc(Nc2cc3c(cc2OC)N(C)C(=O)C(C)(C)O3)ncc1Cl` [Compound 2, 7-((5-chloro-4-(methylamino)pyrimidin-2-yl)amino)-6-methoxy-2,2,4-trimethyl-2H-benzo[b][1,4]oxazin-3(4H)-one] came in with an inhibitory constant (Ki) of 1 nM. This Ki lies about 3-fold lower than the previous one.

Take `CNc1nc(Nc2cc3oc(C(=O)N(C)C)cc3cc2OC)ncc1C(F)(F)F` [Compound 3, 5-methoxy-N,N-dimethyl-6-((4-(methylamino)-5-(trifluoromethyl)pyrimidin-2-yl)amino)benzofuran-2-carboxamide]: the Ki stood at 1 nM. That is a single-digit nanomolar value.

As to `CNc1nc(Nc2cc3c(cc2Cl)n(C)c(=O)n3C)ncc1C(F)(F)F` [Compound 4, 5-chloro-1,3-dimethyl-6-((4-(methylamino)-5-(trifluoromethyl)pyrimidin-2-yl)amino)-1H-benzo[d]imidazol-2(3H)-one], the affinity, expressed as Ki, was 2 nM. This Ki is about 2-fold higher than that of the molecule before.

`CNc1nc(Nc2cc3oc(=O)n(C)c3cc2Cl)ncc1C(F)(F)F` [Compound 5, 5-chloro-3-methyl-6-((4-(methylamino)-5-(trifluoromethyl)pyrimidin-2-yl)amino)benzo[d]oxazol-2(3H)-one] yielded a Ki of 4 nM.

Turning to `CNc1nc(Nc2cc3nc(C)oc3cc2Cl)ncc1C(F)(F)F` [Compound 6, N^2-(6-chloro-2-methylbenzo[d]oxazol-5-yl)-N^4-methyl-5-(trifluoromethyl)pyrimidine-2,4-diamine], the Ki is 5 nM.

`CNc1nc(Nc2cc3c(cc2OC)CN(C)C3=O)ncc1C(F)(F)F` [Compound 7, 5-methoxy-2-methyl-6-(4-(methylamino)-5-(trifluoromethyl)pyrimidin-2-ylamino)isoindolin-1-one] registered a Ki of 5 nM.

Molecule `CNc1nc(Nc2cc3c(cc2Cl)C(=O)N(C)C3)ncc1Cl` [Compound 8, 6-chloro-5-(5-chloro-4-(methylamino)pyrimidin-2-ylamino)-2-methylisoindolin-1-one] gave a Ki of 3 nM.

For the molecule `CNc1nc(Nc2cc3c(cc2Cl)C(=O)N(C)C3)ncc1C(F)(F)F` [Compound 9, 6-chloro-2-methyl-5-(4-(methylamino)-5-(trifluoromethyl)pyrimidin-2-ylamino)isoindolin-1-one], the affinity corresponds to a Ki of 1 nM.

`CNc1nc(Nc2ccc3c(c2OC)CN(C2CC2)C3=O)ncc1C(F)(F)F` [Compound 10, 2-cyclopropyl-4-methoxy-5-(4-(methylamino)-5-(trifluoromethyl)pyrimidin-2-ylamino)isoindolin-1-one] came in with an inhibitory constant (Ki) of 7 nM. Compared with the last molecule, the Ki is about 7-fold higher.

`CNc1nc(Nc2ccc3c(c2OC)CN(C)C3=O)ncc1C(F)(F)F` [Compound 11, 4-methoxy-2-methyl-5-(4-(methylamino)-5-(trifluoromethyl)pyrimidin-2-ylamino)isoindolin-1-one] gave a Ki of 1 nM.

`CNc1nc(Nc2cc3c(cc2OC)N(C)C(=O)C(C)(C)O3)ncc1C(F)(F)F` [Compound 12, 6-methoxy-2,2,4-trimethyl-7-(4-(methylamino)-5-(trifluoromethyl)pyrimidin-2-ylamino)-2H-benzo[b][1,4]oxazin-3(4H)-one] returned a Ki of 8 nM.

In turn, `CNc1nc(Nc2cc3oc(=O)[nH]c3cc2Cl)ncc1Cl` [Compound 13, 5-chloro-6-(5-chloro-4-(methylamino)pyrimidin-2-ylamino)benzo[d]oxazol-2(3H)-one] yielded a Ki of 4 nM. This Ki lies about 2-fold lower than the previous one.

Turning to `CNc1nc(Nc2cc3c(cc2OC)C(=O)N(C)CC3)ncc1C(F)(F)F` [Compound 15, 7-methoxy-2-methyl-6-(4-(methylamino)-5-(trifluoromethyl)pyrimidin-2-ylamino)-3,4-dihydroisoquinolin-1(2H)-one], the affinity, expressed as Ki, was 7 nM.

Turning to `CNc1nc(Nc2cc3c(cc2OC)C(=O)N(C)CC3)ncc1C#N` [Compound 16, 2-(7-methoxy-2-methyl-1-oxo-1,2,3,4-tetrahydroisoquinolin-6-ylamino)-4-(methylamino)pyrimidine-5-carbonitrile], affinity was put at a Ki of 44 nM.

`CNc1nc(Nc2cc3cnn(C)c(=O)c3cc2OC)ncc1C(F)(F)F` [Compound 17, 7-methoxy-2-methyl-6-(4-(methylamino)-5-(trifluoromethyl)pyrimidin-2-ylamino)phthalazin-1(2H)-one] displayed a Ki of 27 nM.

As to `CCN1Cc2c(ccc(Nc3ncc(C(F)(F)F)c(NC)n3)c2OC)C1=O` [Compound 18, 2-ethyl-4-methoxy-5-(4-(methylamino)-5-(trifluoromethyl)pyrimidin-2-ylamino)isoindolin-1-one], affinity was put at a Ki of 9 nM.

The molecule `CNc1nc(Nc2ccc3c(c2OC)CN(C(C)(C)O)C3=O)ncc1C(F)(F)F` [Compound 19, 2-(2-hydroxypropan-2-yl)-4-methoxy-5-(4-(methylamino)-5-(trifluoromethyl)pyrimidin-2-ylamino)isoindolin-1-one] returned a Ki of 4 nM.

The molecule `CNc1nc(Nc2ccc3c(c2OC)CN(C2COC2)C3=O)ncc1C(F)(F)F` [Compound 20, 4-methoxy-5-(4-(methylamino)-5-(trifluoromethyl)pyrimidin-2-ylamino)-2-(oxetan-3-yl)isoindolin-1-one] registered a Ki of 9 nM.

For the molecule `CNc1nc(Nc2cc3c(cc2OC)C(=O)N(C)C3)ncc1C(F)(F)F` [Compound 21, 6-methoxy-2-methyl-5-(4-(methylamino)-5-(trifluoromethyl)pyrimidin-2-ylamino)isoindolin-1-one], the Ki was determined as 5 nM.

With `CNc1nc(Nc2cc3c(cc2Cl)c(C(=O)N2CCOCC2)cn3C)ncc1C(F)(F)F` [Compound 22, (5-chloro-1-methyl-6-(4-(methylamino)-5-(trifluoromethyl)pyrimidin-2-ylamino)-1H-indol-3-yl)(morpholino)methanone], the affinity, expressed as Ki, was 3 nM.

Turning to `CNc1nc(Nc2cc3c(cc2OC)C(=O)N(CC(C)(C)O)C3)ncc1C(F)(F)F` [Compound 23, 2-(2-hydroxy-2-methylpropyl)-6-methoxy-5-(4-(methylamino)-5-(trifluoromethyl)pyrimidin-2-ylamino)isoindolin-1-one], the Ki came out at 10 nM.

The molecule `CCNc1nc(Nc2cc3c(cc2OC)C(=O)N(CC(C)(C)O)C3)ncc1C(F)(F)F` [Compound 24, 5-(4-(ethylamino)-5-(trifluoromethyl)pyrimidin-2-ylamino)-2-(2-hydroxy-2-methylpropyl)-6-methoxyisoindolin-1-one] yielded a Ki of 3 nM. This Ki is about 3.3-fold lower than that of the molecule before.

As for `CNc1nc(Nc2cc3c(cc2OC)C(=O)N(C2COC2)C3)ncc1C(F)(F)F` [Compound 25, 6-methoxy-5-(4-(methylamino)-5-(trifluoromethyl)pyrimidin-2-ylamino)-2-(oxetan-3-yl)isoindolin-1-one], the inhibition constant (Ki) was 6 nM. This Ki is about 2-fold higher than that of the molecule before.

For the molecule `CCNc1nc(Nc2cc3c(cc2OC)C(=O)N(C2COC2)C3)ncc1C(F)(F)F` [Compound 26, 5-(4-(ethylamino)-5-(trifluoromethyl)pyrimidin-2-ylamino)-6-methoxy-2-(oxetan-3-yl)isoindolin-1-one], the Ki was 2 nM. This Ki is about 3-fold lower than that of the molecule before.

Molecule `CNc1nc(Nc2cc3c(cc2Cl)c(C(=O)N(C)C)cn3C)ncc1C(F)(F)F` [Compound 27, 5-chloro-N,N,1-trimethyl-6-(4-(methylamino)-5-(trifluoromethyl)pyrimidin-2-ylamino)-1H-indole-3-carboxamide] yielded a Ki of 6 nM.

In turn, `CNc1nc(Nc2cc3c(cc2Cl)c(C(=O)N2CCNCC2)cn3C)ncc1C(F)(F)F` [Compound 28, (5-chloro-1-methyl-6-(4-(methylamino)-5-(trifluoromethyl)pyrimidin-2-ylamino)-1H-indol-3-yl)(piperazin-1-yl)methanone] came in with a Ki of 4 nM.

In the case of `CCNc1nc(Nc2cc3c(cc2Cl)c(C(=O)N2CCOCC2)cn3C)ncc1C(F)(F)F` [Compound 29], the inhibition constant (Ki) was determined as 1 nM.

As for `CNc1nc(Nc2cc3c(cc2OC)c(C(=O)N2CCOCC2)cn3C)ncc1C(F)(F)F` [Compound 30, (5-methoxy-1-methyl-6-(4-(methylamino)-5-(trifluoromethyl)pyrimidin-2-ylamino)-1H-indol-3-yl)(morpholino)methanone], the Ki was 1 nM.
